From patent US4920118A, “Aromatic 2-aminoalkyl-1,2-benzoisothiazol-3-(2H)one-1,1-dioxide and their use as anxiolytic and anti-hypertensive agents” (Merrell Dow Pharmaceuticals Inc., priority 1989, dated 1990)
Read-outs that look alike come from different tables or passages of the source.

Columns and labels:
[1] = test system: conscious spontaneously hypertensive rats; test: Arterial blood pressure and heart rate in conscious spontaneously hypertensive rats; type: in vivo, rat; details: for Δ BP / Δ HR: conscious SHR
Description: In a separate experiment arterial blood pressure and heart rate were measured directly in conscious male, spontaneously hypertensive rats weighing 250-350 g (Charles River, France). The same test compound was administered, either s.c. or orally, as a saline solution of 1 ml/kg body weight in the doses shown below.

[2] = test system: anesthetized normotensive Sprague-Dawley rats; test: Blood pressure and heart rate in anesthetized normotensive rats; type: in vivo, rat
Description: Male, normotensive Sprague-Dawley rats weighing 250-350 g (supplied by Charles River, France) were anesthetized with pentobarbitone sodium, 60 mg/kg, i.p., plus 15 mg/kg s.c. Blood pressure was recorded either from the left common carotid artery or from a femoral artery by means of a Statham pressure transducer (Type P23 AA) and heart rate was recorded from the electrocardiogram using a Beckman cardiotachometer coupler (Type 9757 B). […] A femoral vein was cannulated for the intravenous injection of drugs. After completion of all operative procedures, heparin 500 U was injected intravenously.
The compounds of Example I, 2-[4-[(2,3-dihydro-1,4-benzodioxine-2-yl)methylamino]butyl]-1,2-benzoisothiazol-3(2H)one-1,1-dioxide was administered s.c. as a saline solution in a volume of 1 ml/kg body weight. The following changes in blood pressure (B.P.) and heart rate (H.R.) were observed.

[3] = target: T1, 5-HT1A recognition sites (Rattus norvegicus, UniProt P19327); test: 5-HT1A radioligand binding, rat frontal cortex homogenate; details: for Fold Increase (antilog of the difference of the test compound compared to buspirone): 5-HT1A binding potency relative to buspirone
T1 construct: male normotensive Sprague-Dawley rat frontal cortex was dissected, frozen in liquid nitrogen; from tissue; host or cells: frontal cortex of male normotensive Sprague-Dawley rats, washed homogenate
T1 sequence (P19327 1-422): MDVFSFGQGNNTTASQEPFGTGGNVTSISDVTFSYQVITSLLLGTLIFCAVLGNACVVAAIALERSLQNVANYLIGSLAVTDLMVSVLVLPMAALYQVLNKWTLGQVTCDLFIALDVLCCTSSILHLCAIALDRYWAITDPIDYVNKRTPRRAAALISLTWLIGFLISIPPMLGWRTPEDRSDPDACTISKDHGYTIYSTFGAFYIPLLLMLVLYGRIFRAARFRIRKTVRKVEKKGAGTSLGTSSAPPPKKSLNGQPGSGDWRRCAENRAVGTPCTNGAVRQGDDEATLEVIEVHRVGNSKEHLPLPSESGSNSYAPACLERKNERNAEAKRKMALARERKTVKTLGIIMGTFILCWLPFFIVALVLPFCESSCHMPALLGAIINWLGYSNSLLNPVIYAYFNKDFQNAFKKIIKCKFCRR
Description: Radioligand binding studies of the 5-HT1A recognition sites were carried out as follows: male normotensive Sprague-Dawley rat frontal cortex was dissected, frozen in liquid nitrogen and stored at -20° C. until needed. Tissues from 4-8 rats were pooled and homogenised in 70 vol Tris-HCl buffer (50 mM, pH 7.7), using a kinematica Polytron (setting 2/3 max speed, 20 sec). The homogenate was centrifuged (36500×g for 10 min), the pellet re-homogenised in the same volume of buffer and the process repeated two more times. Between the second and third centrifugations the tissue homogenate was incubated at 37° C. for 10 min. The final pellet was suspended in the same volume of Tris buffer containing 10M pargyline, 5.7 mM CaCl2 and 0.1% ascorbic acid. This suspension was incubated for 10 min at 37° C. and then stored on ice until used in the binding assay.
Tissue homogenate (0.7 ml), radioactive ligand (0.1 ml) and the appropriate concentration of test compound (0.1 ml), together with buffer to a final volume of 1 ml were incubated at 37° C. for 15 min. Incubations were terminated by rapid filtration through Whatman GF/B filters followed by three 5 ml washes with ice-cold Tris-HCl buffer (50 mM, pH 7.0). Radioactivity was measured after extraction into Aquasol-Z (NEN) at an efficiency of 45-50%. The radioligand used to label the 5-HT1A recognition sites and its concentration is [^3 H]-8-hydroxy-2-(di-n-propylamino)-tetralin, ([^3 H]-8-OH-DPAT), 1 mM.

[4] = [3H]-8-OH-DPAT, rat frontal cortex, mean ± S.E.M. of 3 independent experiments, read-out: 5-HT1A Binding Affinity Rat Brain Cortex (pIC50) (converted)

Compound: O=C1c2ccccc2S(=O)(=O)N1CCCCNCC1COc2ccccc2O1 (stereo not drawn) [Example I, 2-[4-[(2,3-Dihydro-1,4-benzodioxin-2-yl)methylamino]butyl]-1,2-benzoisothiazol-3(2H)one-1,1-dioxide]
- Δ BP ([1]; 100 μg/kg s.c.): -20 mmHg
- Δ HR ([1]; 100 μg/kg s.c.): +80 beats/min
- Δ BP ([1]; 200 μg/kg s.c.): -65 mmHg
- Δ HR ([1]; 200 μg/kg s.c.): +100 beats/min
- Δ BP ([1]; 500 μg/kg s.c.): -75 mmHg
- Δ HR ([1]; 500 μg/kg s.c.): +120 beats/min
- Δ BP ([1]; 1 mg/kg per os): -25 mmHg
- Δ HR ([1]; 1 mg/kg per os): +100 beats/min
- Δ BP ([1]; 5 mg/kg per os): -45 mmHg
- Δ HR ([1]; 5 mg/kg per os): +100 beats/min
- Effect on blood pressure and heart rate (in words) ([1]; conscious spontaneously hypertensive rats): lowers the blood pressure with reflex tachycardia
- Effect on blood pressure and heart rate (in words) [2]: effectively lowers the blood pressure and heart rate
- Δ BP ([2]; 25 μg/kg s.c.): -35 mmHg
- Δ HR ([2]; 25 μg/kg s.c.): -80 beats/min
- Δ BP ([2]; 500 μg/kg s.c.): -50 mmHg
- Δ HR ([2]; 500 μg/kg s.c.): -90 beats/min
- Fold Increase (antilog of the difference of the test compound compared to buspirone) [3]: 66
- IC50 [3, 4]: 0.457 nM

Compound: O=C1c2ccccc2S(=O)(=O)N1CCCCN1CCc2c([nH]c3ccccc23)C1 [Example II, 2-[4-(2-[1,2,3,4]-tetrahydro-β-carbolinyl)butyl]-1,2-benzoisothiazol-3(2H)one-1,1-dioxide]
- IC50 [3]: 6.92 nM
- Fold Increase (antilog of the difference of the test compound compared to buspirone) [3]: 4.4

Compound: COc1cccc2c1CC(NCCCCN1C(=O)c3ccccc3S1(=O)=O)CC2 (stereo not drawn) [Example III, 2-[4-[8-Methoxytetralin-2-amino]butyl]1,2-benzoisothiazol3(2H)one-1,1-dioxide]
- Fold Increase (antilog of the difference of the test compound compared to buspirone) [3]: 10
- IC50 [3, 4]: 3.02 nM

Compound: O=C1c2ccccc2S(=O)(=O)N1CCCCNCC1COc2ccccc2N1 (stereo not drawn) [Example V, 2-[4-[(2,3-Dihydro-1,4-benzoxazin-3-yl)methylamino]butyl]-1,2-benzoisothiazol-3-(2H)one-1,1-dioxide]
- Fold Increase (antilog of the difference of the test compound compared to buspirone) [3]: 3.2
- IC50 [3, 4]: 9.33 nM
